Test results published in ChEMBL document CHEMBL6177939, “The role of silicon in drug discovery: a review” (RSC Med Chem, 2024).
Converted amounts (≈) assume the structure as drawn.

How the values were obtained:
[1] = test system: Mycobacterium tuberculosis; experiment: Antimycobacterial activity against Mycobacterium tuberculosis H37Rv assessed as inhibition of bacterial growth incubated for 24 hrs by alamar blue assay; type: functional
[2] = Acute toxicity in po dosed mouse assessed as lethal dose; type: organism-based; conditions: in vivo
COLO 205 = experiment: Antiproliferative activity against human COLO 205 cells assessed as reduction in cell growth incubated for 24 hrs by MTT assay; type: functional, cell-based; conditions: COLO 205, 24 h
COLO 320 = experiment: Antiproliferative activity against human COLO 320 cells assessed as reduction in cell growth incubated for 24 hrs by MTT assay; type: functional, cell-based; conditions: COLO 320, 24 h
A2780 = experiment: Antiproliferative activity against human A2780 cells assessed as reduction in cell growth incubated for 24 hrs by MTT assay; type: functional, cell-based; conditions: A2780, 24 h
[3] = target: Angiotensin-converting enzyme (Homo sapiens, UniProt P12821); experiment: Inhibition of ACE (unknown origin) using N-[3-(2-furyl)-acryloyl]- L -phenylalanylglycylglycin as substrate incubated for 5 mins
Sequence of Angiotensin-converting enzyme (P12821 whole entry): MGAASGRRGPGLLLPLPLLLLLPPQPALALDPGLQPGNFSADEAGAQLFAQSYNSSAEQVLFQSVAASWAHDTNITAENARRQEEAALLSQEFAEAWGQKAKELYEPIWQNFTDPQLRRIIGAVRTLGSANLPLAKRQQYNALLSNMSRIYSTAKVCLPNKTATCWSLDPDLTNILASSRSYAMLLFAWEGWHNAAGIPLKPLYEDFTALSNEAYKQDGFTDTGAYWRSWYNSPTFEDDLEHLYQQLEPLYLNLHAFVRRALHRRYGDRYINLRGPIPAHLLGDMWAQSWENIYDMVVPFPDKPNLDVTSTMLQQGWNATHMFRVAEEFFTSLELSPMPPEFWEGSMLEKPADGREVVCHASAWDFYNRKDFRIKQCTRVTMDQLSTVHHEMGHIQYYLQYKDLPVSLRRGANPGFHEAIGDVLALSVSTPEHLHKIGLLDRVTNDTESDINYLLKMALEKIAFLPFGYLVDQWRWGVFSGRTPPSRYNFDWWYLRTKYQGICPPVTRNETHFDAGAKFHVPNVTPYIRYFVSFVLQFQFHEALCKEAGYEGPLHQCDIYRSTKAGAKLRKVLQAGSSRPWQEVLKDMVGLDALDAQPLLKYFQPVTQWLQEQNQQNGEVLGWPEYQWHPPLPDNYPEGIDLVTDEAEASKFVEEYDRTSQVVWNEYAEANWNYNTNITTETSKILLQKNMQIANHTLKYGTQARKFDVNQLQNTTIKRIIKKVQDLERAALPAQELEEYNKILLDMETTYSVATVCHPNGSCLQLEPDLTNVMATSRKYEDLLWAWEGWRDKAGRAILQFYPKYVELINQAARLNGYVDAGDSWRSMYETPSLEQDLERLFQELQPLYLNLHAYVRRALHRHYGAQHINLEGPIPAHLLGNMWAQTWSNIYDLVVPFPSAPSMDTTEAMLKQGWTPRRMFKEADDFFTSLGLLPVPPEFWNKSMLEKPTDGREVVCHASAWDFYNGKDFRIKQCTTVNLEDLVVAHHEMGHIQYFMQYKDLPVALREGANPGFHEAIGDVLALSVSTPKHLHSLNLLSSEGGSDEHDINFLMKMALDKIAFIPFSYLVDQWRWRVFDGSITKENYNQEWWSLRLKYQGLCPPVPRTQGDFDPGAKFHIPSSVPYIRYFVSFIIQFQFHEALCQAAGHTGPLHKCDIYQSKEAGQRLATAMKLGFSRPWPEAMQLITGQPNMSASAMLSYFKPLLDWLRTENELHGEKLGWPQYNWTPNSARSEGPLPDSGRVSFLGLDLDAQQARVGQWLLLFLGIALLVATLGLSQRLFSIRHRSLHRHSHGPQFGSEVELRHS

Pseudomonas aeruginosa [4] = experiment: Antibacterial activity against Pseudomonas aeruginosa; type: functional
Escherichia coli = experiment: Antibacterial activity against Escherichia coli; type: functional
Staphylococcus aureus = experiment: Antibacterial activity against Staphylococcus aureus; type: functional
MDA-MB-435 [5] = experiment: Cytotoxicity against human MDA-MB-435 cells assessed as reduction in cell viability incubated for 48 hrs by SRB assay; type: functional, cell-based; conditions: MDA-MB-435, 48 h
MG-22A [6] = experiment: Cytotoxicity against mouse MG-22A cells assessed as reduction in cell growth by measuring lethal concentration for 72 hrs by MTT assay; type: functional
HT-1080 [7] = experiment: Cytotoxicity against human HT-1080 cells assessed as reduction in cell growth by measuring lethal concentration for 72 hrs by MTT assay; type: functional
NIH3T3 = experiment: Cytotoxicity against mouse NIH3T3 cells assessed as reduction in cell growth by measuring lethal concentration for 72 hrs by MTT assay; type: toxicity, cell-based; conditions: nih3t3, 72 h
MCF7 [8] = experiment: Cytotoxicity against human MCF7 cells assessed as reduction in cell viability by XTT assay; type: functional, cell-based
HepG2 [9] = experiment: Cytotoxicity against human HepG2 cells assessed as reduction in cell viability by XTT assay; type: functional, cell-based
Pseudomonas aeruginosa [10] = experiment: Antibacterial activity against Pseudomonas aeruginosa ATCC 27853 assessed as reduction in bacterial growth incubated for 24 hrs by CLSI micro-dilution method; type: functional
Penicillium chrysogenum = experiment: Antifungal activity against Penicillium chrysogenum ATCC 11709 assessed as reduction in fungal growth incubated for 24 hrs by CLSI micro-dilution method; type: functional
Fusarium solani = experiment: Antifungal activity against Fusarium solani ATCC 20327 assessed as reduction in fungal growth incubated for 24 hrs by CLSI micro-dilution method; type: functional
Aspergillus niger = experiment: Antifungal activity against Aspergillus niger ATCC 16888 assessed as reduction in fungal growth incubated for 24 hrs by broth micro-dilution method; type: functional
Bacillus sp. = experiment: Antibacterial activity against Bacillus sp. ATCC 19986 assessed as reduction in bacterial growth incubated for 24 hrs by CLSI micro-dilution method; type: functional; conditions: Bacillus sp. (in: firmicutes)
BJAB = experiment: Cytotoxicity against human BJAB cells assessed as lethal dose measured after 48 hrs; type: functional; conditions: read-out: LD50 (the source's name)
Aedes aegypti = experiment: […] activity against Aedes aegypti assessed as protection time at 0.5 microg/cm; type: functional
NCI-H460 = experiment: Antiproliferative activity against human NCI-H460 cells assessed as reduction in cell growth incubated for 24 hrs; type: functional, cell-based; conditions: NCI-H460, 24 h
HT-29 [11] = experiment: Antiproliferative activity against human HT-29 cells assessed as reduction in cell growth incubated for 24 hrs; type: functional, cell-based; conditions: HT-29, 24 h
Caco-2 = experiment: Antiproliferative activity against human Caco-2 cells assessed as reduction in cell growth incubated for 24 hrs; type: functional, cell-based; conditions: Caco-2, 24 h
MCF7 [12] = experiment: Antiproliferative activity against human MCF7 cells assessed as reduction in cell growth incubated for 24 hrs; type: functional, cell-based; conditions: MCF7, 24 h
MG-22A [13] = experiment: Cytotoxicity against mouse MG-22A cells assessed as reduction in cell growth measured for 72 hrs by MTT assay; type: functional, cell-based
HT-1080 [14] = experiment: Cytotoxicity against human HT-1080 cells assessed as reduction in cell growth measured for 72 hrs by MTT assay; type: functional, cell-based; conditions: HT-1080, 72 h
HT-29 [15] = experiment: Antiproliferative activity against human HT-29 cells assessed as reduction in cell viability incubated for 24 hrs by MTT assay; type: functional, cell-based; conditions: HT-29, 24 h
MDA-MB-435 [16] = experiment: Antiproliferative activity against human MDA-MB-435 cells assessed as reduction in cell viability incubated for 24 hrs by MTT assay; type: functional, cell-based; conditions: MDA-MB-435, 24 h
HeLa = experiment: Antiproliferative activity against human Hela cells assessed as reduction in cell viability incubated for 24 hrs by MTT assay; type: functional, cell-based
Mythimna separata = experiment: Toxicity in Mythimna separata assessed as lethal dose; type: organism-based
Plutella xylostella = experiment: Toxicity in Plutella xylostella assessed as lethal dose; type: organism-based
Histone deacetylase 1 = Histone deacetylase 1 (Homo sapiens, UniProt Q13547); experiment: Inhibition of human recombinant HDAC1 using Ac-Leu-Gly-Lys(Ac)-AMC as substrate incubated for 30 mins by EnSpire plate reader analysis
Sequence of Histone deacetylase 1 (Q13547 whole entry): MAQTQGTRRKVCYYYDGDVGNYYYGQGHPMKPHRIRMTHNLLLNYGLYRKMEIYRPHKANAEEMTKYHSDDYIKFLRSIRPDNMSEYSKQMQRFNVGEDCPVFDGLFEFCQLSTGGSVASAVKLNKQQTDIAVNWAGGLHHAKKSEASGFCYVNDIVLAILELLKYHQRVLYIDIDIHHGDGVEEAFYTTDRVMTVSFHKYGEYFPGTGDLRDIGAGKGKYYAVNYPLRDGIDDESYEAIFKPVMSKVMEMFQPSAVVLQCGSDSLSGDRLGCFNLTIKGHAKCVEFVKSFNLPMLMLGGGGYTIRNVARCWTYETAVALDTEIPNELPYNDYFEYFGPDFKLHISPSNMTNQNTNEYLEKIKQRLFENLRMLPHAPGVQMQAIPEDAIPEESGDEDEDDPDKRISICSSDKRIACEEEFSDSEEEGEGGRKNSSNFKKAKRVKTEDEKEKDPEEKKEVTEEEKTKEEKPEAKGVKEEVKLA

Histone deacetylase 5 = Histone deacetylase 5 (Homo sapiens, UniProt Q9UQL6); experiment: Inhibition of human recombinant HDAC5 using Ac-Leu-Gly-Lys(Tfa)-AMC as substrate incubated for 30 mins by EnSpire plate reader analysis
Sequence of Histone deacetylase 5 (Q9UQL6 whole entry): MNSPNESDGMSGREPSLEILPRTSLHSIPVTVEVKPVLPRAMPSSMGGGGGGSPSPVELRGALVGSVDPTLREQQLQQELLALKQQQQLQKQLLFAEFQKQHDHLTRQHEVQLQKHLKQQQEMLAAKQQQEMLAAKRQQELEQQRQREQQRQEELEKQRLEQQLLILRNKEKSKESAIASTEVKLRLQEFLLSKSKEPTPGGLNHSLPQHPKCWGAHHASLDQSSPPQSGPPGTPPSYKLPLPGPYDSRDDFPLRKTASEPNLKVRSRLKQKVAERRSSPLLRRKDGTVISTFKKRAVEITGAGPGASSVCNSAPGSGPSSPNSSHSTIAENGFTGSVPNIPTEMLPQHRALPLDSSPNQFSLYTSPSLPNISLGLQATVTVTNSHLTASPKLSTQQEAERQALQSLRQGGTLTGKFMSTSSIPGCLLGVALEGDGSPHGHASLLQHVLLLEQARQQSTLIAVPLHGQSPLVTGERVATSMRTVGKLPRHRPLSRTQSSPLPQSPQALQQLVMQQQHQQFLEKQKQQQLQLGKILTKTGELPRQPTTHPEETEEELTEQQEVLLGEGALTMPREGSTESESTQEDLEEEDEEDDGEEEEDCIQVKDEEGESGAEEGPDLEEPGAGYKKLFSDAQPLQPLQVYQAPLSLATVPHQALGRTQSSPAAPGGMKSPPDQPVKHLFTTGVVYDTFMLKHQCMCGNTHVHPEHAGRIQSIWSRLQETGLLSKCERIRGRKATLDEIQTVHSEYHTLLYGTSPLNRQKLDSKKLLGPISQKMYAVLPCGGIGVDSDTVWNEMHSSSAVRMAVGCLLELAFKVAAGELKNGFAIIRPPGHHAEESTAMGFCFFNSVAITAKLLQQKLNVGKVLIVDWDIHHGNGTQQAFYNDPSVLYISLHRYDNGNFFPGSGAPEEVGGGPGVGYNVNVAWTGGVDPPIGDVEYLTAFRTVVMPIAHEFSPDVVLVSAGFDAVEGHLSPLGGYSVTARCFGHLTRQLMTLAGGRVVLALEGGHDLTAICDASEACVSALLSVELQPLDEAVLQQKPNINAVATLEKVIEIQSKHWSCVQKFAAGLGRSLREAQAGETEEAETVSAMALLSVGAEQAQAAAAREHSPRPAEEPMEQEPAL

Histone deacetylase 4 = Histone deacetylase 4 (Homo sapiens, UniProt P56524); experiment: Inhibition of human recombinant HDAC4 using Ac-Leu-Gly-Lys(Tfa)-AMC as substrate incubated for 30 mins by EnSpire plate reader analysis
[17] = target: Protein deacetylase HDAC6 (Homo sapiens, UniProt Q9UBN7); experiment: Inhibition of human recombinant HDAC6 using Ac-Leu-Gly-Lys(Ac)-AMC as substrate incubated for 30 mins by EnSpire plate reader analysis
Sequence of Protein deacetylase HDAC6 (Q9UBN7 whole entry): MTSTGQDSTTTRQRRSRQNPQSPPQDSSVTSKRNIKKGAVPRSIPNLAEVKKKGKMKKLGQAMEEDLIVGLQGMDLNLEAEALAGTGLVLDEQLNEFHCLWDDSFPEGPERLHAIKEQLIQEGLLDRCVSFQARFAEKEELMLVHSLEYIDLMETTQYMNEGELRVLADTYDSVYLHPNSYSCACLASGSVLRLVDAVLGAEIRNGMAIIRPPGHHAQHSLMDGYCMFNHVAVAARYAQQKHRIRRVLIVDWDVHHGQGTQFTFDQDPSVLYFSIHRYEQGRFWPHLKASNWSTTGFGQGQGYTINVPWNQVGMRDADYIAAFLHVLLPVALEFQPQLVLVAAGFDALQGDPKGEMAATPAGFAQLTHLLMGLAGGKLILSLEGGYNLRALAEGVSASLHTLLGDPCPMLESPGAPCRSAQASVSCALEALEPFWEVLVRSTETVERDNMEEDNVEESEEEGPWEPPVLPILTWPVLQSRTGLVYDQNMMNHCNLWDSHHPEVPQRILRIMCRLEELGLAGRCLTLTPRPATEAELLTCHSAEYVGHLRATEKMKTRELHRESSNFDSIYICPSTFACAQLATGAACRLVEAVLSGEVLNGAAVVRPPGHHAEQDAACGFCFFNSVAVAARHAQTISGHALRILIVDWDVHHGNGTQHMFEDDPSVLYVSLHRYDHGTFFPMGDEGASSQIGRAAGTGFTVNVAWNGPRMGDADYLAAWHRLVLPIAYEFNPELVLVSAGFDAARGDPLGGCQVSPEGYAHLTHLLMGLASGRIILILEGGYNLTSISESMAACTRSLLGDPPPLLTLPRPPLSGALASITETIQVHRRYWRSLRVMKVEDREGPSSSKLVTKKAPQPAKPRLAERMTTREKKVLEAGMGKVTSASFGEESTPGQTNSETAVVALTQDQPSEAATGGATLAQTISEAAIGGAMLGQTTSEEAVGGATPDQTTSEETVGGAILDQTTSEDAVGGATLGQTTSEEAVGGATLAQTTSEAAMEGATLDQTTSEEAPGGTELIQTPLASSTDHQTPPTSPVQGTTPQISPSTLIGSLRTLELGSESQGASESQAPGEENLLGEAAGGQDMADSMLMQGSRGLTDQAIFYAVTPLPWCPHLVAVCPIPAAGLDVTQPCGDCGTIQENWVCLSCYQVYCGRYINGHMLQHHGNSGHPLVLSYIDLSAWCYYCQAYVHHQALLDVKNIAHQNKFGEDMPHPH

Histone deacetylase 2 = Histone deacetylase 2 (Homo sapiens, UniProt Q92769)
Sequence of Histone deacetylase 2 (Q92769 whole entry): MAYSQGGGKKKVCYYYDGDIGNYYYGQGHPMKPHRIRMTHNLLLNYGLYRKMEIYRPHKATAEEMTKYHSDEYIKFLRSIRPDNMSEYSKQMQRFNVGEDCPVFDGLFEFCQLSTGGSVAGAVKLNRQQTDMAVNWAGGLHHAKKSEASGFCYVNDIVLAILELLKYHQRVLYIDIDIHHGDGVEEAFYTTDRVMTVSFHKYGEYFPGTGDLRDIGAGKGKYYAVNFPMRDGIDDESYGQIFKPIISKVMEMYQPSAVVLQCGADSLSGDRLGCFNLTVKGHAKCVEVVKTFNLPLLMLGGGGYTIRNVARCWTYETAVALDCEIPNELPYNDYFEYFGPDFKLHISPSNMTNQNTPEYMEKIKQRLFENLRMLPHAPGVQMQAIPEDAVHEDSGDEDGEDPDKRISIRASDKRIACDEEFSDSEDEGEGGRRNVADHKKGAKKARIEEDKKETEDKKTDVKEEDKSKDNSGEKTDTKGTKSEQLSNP

HepG2 [18] = experiment: Antiproliferative activity against human HepG2 cells; type: functional, cell-based

C[Si]1(C)CCN(C(=O)/C=C/c2ccc3c(c2)OCO3)CC1
MIC [1]: 50 µg/mL (≈ 165 µM)

CCCC(C)(COC(N)=O)COC(N)=O [MEPROBAMATE]
LD50 [2]: 700 mg/kg

CC[C@@]1(O)C(=O)OCc2c1cc1n(c2=O)Cc2c-1nc1ccccc1c2CC[Si](C)(C)C [COSITECAN]
IC50 (COLO 205): 1.5 nM
IC50 (COLO 320): 1.5 nM
IC50 (A2780): 1.8 nM

CCC[Si](C)(COC(N)=O)COC(N)=O
LD50 [2]: > 1000 mg/kg

CC(C)CC(NC(=O)c1ccccc1)[Si](O)(O)CC(C)C(=O)N1CCC[C@H]1C(=O)O (mixture of isomers)
IC50 [3]: 3040 nM

COc1cc(/C=N/CCC[Si](OC)(OC)OC)ccc1OCc1cn(CCOc2ccccc2[N+](=O)[O-])nn1
MIC (Pseudomonas aeruginosa [4]): 15 µg/mL (≈ 26.8 µM)
MIC (Escherichia coli): 15 µg/mL (≈ 26.8 µM)
MIC (Staphylococcus aureus): 1.87 µg/mL (≈ 3.34 µM)

CCN(CC)c1ccc(/C=N/CCC[Si](OC)(OC)OC)c(OCc2cn(CCOc3ccccc3[N+](=O)[O-])nn2)c1
MIC (Pseudomonas aeruginosa [4]): 6.3 µg/mL (≈ 10.5 µM)
MIC (Escherichia coli): 6.3 µg/mL (≈ 10.5 µM)
MIC (Staphylococcus aureus): 0.195 µg/mL (≈ 0.325 µM)

CC[C@@]1(O)C(=O)OCc2c1cc1n(c2=O)Cc2cc3ccccc3nc2-1 [CAMPTOTHECIN]
IC50 (MDA-MB-435 [5]): 15 nM

CCCCCCCCCOCCc1sc[n+](CCC[Si](C)(C)C)c1C.[I-]
LC50 (MG-22A [6]): 0.1 µg/mL
LC50 (HT-1080 [7]): 0.1 µg/mL
LC50 (NIH3T3): 0.1 µg/mL

Nc1ccc(O)c(/C=N/CCC[Si-]234OCC[N+]2(CCO3)CCO4)c1 (stereo not drawn)
IC50 (MCF7 [8]): 65 µg/mL (≈ 185 µM)
IC50 (HepG2 [9]): 150 µg/mL (≈ 427 µM)
MIC (Pseudomonas aeruginosa [10]): 1.2 µg/mL (≈ 3.41 µM)
MIC (Penicillium chrysogenum): 1.2 µg/mL (≈ 3.41 µM)
MIC (Fusarium solani): 1.2 µg/mL (≈ 3.41 µM)
MIC (Aspergillus niger): 1.2 µg/mL (≈ 3.41 µM)
MIC (Bacillus sp.): 1.2 µg/mL (≈ 3.41 µM)

CC(C)(C)[Si](C)(C)OC[C@H]1C[C@@H](n2cc(Br)c(=O)[nH]c2=O)C=C1CO
CC50 (BJAB): 46000 nM

C[Si]1(C)CCN(C(=O)C2=CCCCC2)CC1
Time (Aedes aegypti): 756 min

CC(C)OC(=O)/C(=N/NC(=O)c1ccc(CO[Si](C)(C)C(C)(C)C)o1)c1ccccc1
IC50 (NCI-H460): 3600 nM
IC50 (HT-29 [11]): 3600 nM
IC50 (Caco-2): 40100 nM
IC50 (MCF7 [12]): 3500 nM

CCCCCCCCCC[Si](C)(CCCCCCCCCC)OCC[N+](C)(C)C.[I-]
IC50 (MG-22A [13]): 1 µg/mL
IC50 (HT-1080 [14]): 0.3 µg/mL

CCCCCCCCCCOCC[N+]1(CCC[Si](C)(C)C)CCc2ccccc2C1.[I-] (stereo not drawn)
LC50 (MG-22A [6]): 0.1 µg/mL
LC50 (HT-1080 [7]): 0.1 µg/mL
LC50 (NIH3T3): 0.1 µg/mL

CC1C[N+]23CC(C)O[Si-]2(CCC/N=C/c2cccc([N+](=O)[O-])c2)(O1)OC(C)C3 (stereo not drawn)
IC50 (HT-29 [15]): 12.3 µg/mL (≈ 30.2 µM)
IC50 (MDA-MB-435 [16]): 12.5 µg/mL (≈ 30.7 µM)
IC50 (HeLa): 11.8 µg/mL (≈ 29 µM)

CCS(=O)(=O)c1cc([Si](C)(C)C)cnc1-c1nc2cc(S(=O)(=O)C(F)(F)F)ccc2o1
LC50 (Mythimna separata): 4.8 µg/mL (≈ 9.74 µM)
LC50 (Plutella xylostella): 0.3 µg/mL (≈ 0.609 µM)

CCS(=O)(=O)c1cccnc1-c1nc2cc(S(=O)(=O)C(F)(F)F)ccc2o1
LC50 (Mythimna separata): 4.68 µg/mL (≈ 11.1 µM)
LC50 (Plutella xylostella): 0.21 µg/mL (≈ 0.5 µM)

C[Si](O)(O)CCCCCCC(=O)Nc1ccccc1
IC50 (Histone deacetylase 1): 600 nM
IC50 (Histone deacetylase 5): 600 nM
IC50 (Histone deacetylase 4): 600 nM
IC50 [17]: 600 nM
IC50 (Histone deacetylase 2): 600 nM

COc1ccc([Si](C)(C)[C@@H]2[C@H](CC(=O)N3CCC[C@H]3CO)O[C@@]3(C(=O)N(Cc4cccc(I)c4)c4ccccc43)[C@@H]2C)cc1
EC50 (HepG2 [18]): 16600 nM
